Counter-ions that a name gives are not always drawn.
Assays:
obese Zucker fa/fa rats = assay: Chronic feeding assay (body weight, food and water consumption); assay type: in vivo, rat; settings: once per day at 10 mg/kg p.o.; day 6 of treatment
Source text: Evaluation of Compound's Efficacy on the Reduction of Body Weight and Food and Water Consumption in Obese Zucker fa/fa Rats
The purpose of this protocol is to determine the effect of chronic administration of an unknown compound on body weight and food and water consumption in obese Zucker fa/fa rats. Obese Zucker fa/fa rats are frequently used in the determination of compound efficacy in the reduction of body weight. This animal model has been successfully used in the identification and characterization of the efficacy profile of compounds that are or have been used in the management of body weight in obese humans (see, e.g., Al-Barazanji et al., Obes Res. 8:317–323, 2000; Assimacopoulos-Jeannet et al., Am. J. Physiol. 260(2 Pt 2):R278–283, 1991; Dryden et al., Horm. Metab. Res. 31:363–366, 1999; Edwards and Stevens, Pharmacol. Biochem. Behav. 47:865–872, 1994; Grinker et al., Pharmacol. Biochem. Behav. 12:265–275, 1980).
A typical study includes 60–80 male Zucker fa/fa (n=10/treatment group) with an average body weight of approximately 550 g. […]
Animals are orally gavaged (2 mL/kg) daily before the dark phase of the LD/cycle for a pre-determined number of days (typically 6–14 days) with their assigned dose/compound. At this time, body weight, food and water consumption are measured. On the final day, animals are euthanized by CO2 inhalation, and the body weight is measured.

[1] = Measurement of brain exposure; assay type: in vivo; settings: male, obese Zucker fa/fa, rat, brain homogenate, oral; 10 mg/kg p.o.; brains collected at 2 hours post-dosing; read-out: brain homogenate exposure level
Experimental: Measurement of Brain Exposure
Male obese Zucker fa/fa rats are administered compounds, typically at 10 mg/kg p.o., and then brains are collected at 2 hours post-dosing for determination of brain concentration. Brains are weighed and homogenized with 4 mL 10 mM ammonium acetate buffer (pH 3), and the brain tissue homogenate samples are extracted via protein precipitation with acetonitrile. Samples are vortexed, centrifuged, and analyzed by liquid chromatography utilizing mass spectrometer selective detection (LC/MS/MS) using the heated nebulizer interface. Samples are quantitated using weighted (1/x^2) linear internal standard calibration curve.

Question: Which “increase in body weight from baseline” value (obese Zucker fa/fa rats) does the source give for `COc1ccc(-c2c(C)c3c(n2-c2ccccc2Cl)CCN(N2CCCCC2)C3=O)cc1.Cl` [entry 189, 1-(2-chlorophenyl)-2-(4-methoxyphenyl)-3-methyl-5-(1-piperidinyl)-1,5,6,7-tetrahydro-4H-pyrrolo[3,2-c]pyridin-4-one hydrochloride] here?
Answer: no increase in body weight from baseline

Question: Which concentration at 2 h [1] does the source give for `O[C@@H]1CCCC[C@H]1N1CCc2c(cc(-c3ccc(Cl)cc3)n2-c2ccccc2Cl)C1` (relative stereo) [entry 18, trans-2-[1-(2-chlorophenyl)-2-(4-chlorophenyl)-1,4,6,7-tetrahydro-5H-pyrrolo[3,2-c]pyridin-5-yl]cyclohexanol hydrochloride] here?
Answer: > 500 nM

— patent US7071207B2, “Preparation and use of 1,5,6,7-tetrahydropyrrolo[3,2-c]pyridine derivatives for treatment of obesity” (Bayer Pharmaceuticals Corporation, priority 2001, dated 2006)
